HELM strings list units from the 5' end as sugar, base in round brackets, then linkage (d deoxyribose, r ribose, m 2'-O-methyl, p phosphodiester). Strings are as the collection lists them; they lack the last nucleoside at the 3' end of the tested compound. [moe] = 2'-O-(2-methoxyethyl) (MOE); [sp] = phosphorothioate linkage; [m5C] = 5-methylcytosine
Target: ATXN2
Assay: mouse, dose not given
Settings: ASO

Row | Substance | 3 h FOB score [score 0-7]
1 | RNA1{[moe](G)[sp].[moe]([m5C])p.[moe](T)p.[moe](T)p.[moe](A)p.[moe](G)p.d(A)[sp].d(G)[sp].d(T)[sp].d(T)[sp].d(T)[sp].d(T)[sp].d(T)[sp].d(G)[sp].d([m5C])[sp].d([m5C])[sp].[moe](T)p.[moe](T)[sp].[moe]([m5C])}$$$$ (last 3' nucleoside missing) | 5
2 | RNA1{[moe](G)[sp].[moe]([m5C])p.[moe](T)p.[moe](T)p.[moe](A)p.d(G)[sp].d(A)[sp].d(G)[sp].d(T)[sp].d(T)[sp].d(T)[sp].d(T)[sp].d(T)[sp].d(G)[sp].d([m5C])[sp].[moe]([m5C])p.[moe](T)p.[moe](T)[sp].[moe]([m5C])}$$$$ (last 3' nucleoside missing) | 4
3 | RNA1{[moe](G)[sp].[moe]([m5C])p.[moe](T)p.[moe](T)p.[moe](A)p.d(T)[sp].d(T)[sp].d(A)[sp].d(T)[sp].d(T)[sp].d([m5C])[sp].d(T)[sp].d([m5C])[sp].d(A)[sp].d([m5C])[sp].[moe](A)p.[moe](T)p.[moe](A)[sp].[moe](T)}$$$$ (last 3' nucleoside missing) | 0
4 | RNA1{[moe](G)[sp].[moe]([m5C])p.[moe](T)p.[moe](T)p.d(A)[sp].d(G)[sp].d(A)[sp].d(G)[sp].d(T)[sp].d(T)[sp].d(T)[sp].d(T)[sp].d(T)[sp].d(G)[sp].[moe]([m5C])p.[moe]([m5C])p.[moe](T)p.[moe](T)[sp].[moe]([m5C])}$$$$ (last 3' nucleoside missing) | 4
5 | RNA1{[moe](T)[sp].[moe](A)p.[moe](A)p.[moe](G)p.[moe](A)p.d([m5C])[sp].d(T)[sp].d(T)[sp].d(T)[sp].d(T)[sp].d(T)[sp].d(A)[sp].d(T)[sp].d(G)[sp].d(T)[sp].[moe](T)p.[moe](G)p.[moe]([m5C])[sp].[moe](T)}$$$$ (last 3' nucleoside missing) | 1
6 | RNA1{[moe](T)[sp].[moe](A)p.[moe](A)p.[moe](G)p.[moe]([m5C])p.d(T)[sp].d(G)[sp].d(T)[sp].d(G)[sp].d([m5C])[sp].d(T)[sp].d(A)[sp].d(T)[sp].d(G)[sp].d(G)[sp].[moe](T)p.[moe](G)p.[moe](G)[sp].[moe](T)}$$$$ (last 3' nucleoside missing) | 6.25
7 | RNA1{[moe](T)[sp].[moe](A)p.[moe](A)p.[moe](T)p.[moe](A)p.d(T)[sp].d(T)[sp].d([m5C])[sp].d([m5C])[sp].d(A)[sp].d(T)[sp].d(A)[sp].d([m5C])[sp].d(A)[sp].d(G)[sp].[moe](A)p.[moe](T)p.[moe]([m5C])[sp].[moe](G)}$$$$ (last 3' nucleoside missing) | 0
8 | RNA1{[moe](T)[sp].[moe](A)p.[moe](A)p.[moe]([m5C])p.[moe](T)[sp].d(G)[sp].d(G)[sp].d(T)[sp].d(T)[sp].d(T)[sp].d(G)[sp].d([m5C])[sp].d([m5C])[sp].[moe]([m5C])p.[moe](T)p.[moe](T)[sp].[moe](G)}$$$$ (last 3' nucleoside missing) | 6
9 | RNA1{[moe](T)[sp].[moe](A)p.[moe](G)p.[moe](A)p.[moe](G)p.d(T)[sp].d(T)[sp].d(T)[sp].d(T)[sp].d(T)[sp].d(G)[sp].d([m5C])[sp].d([m5C])[sp].d(T)[sp].d(T)[sp].[moe]([m5C])p.[moe]([m5C])p.[moe](A)[sp].[moe](T)}$$$$ (last 3' nucleoside missing) | 2.5
10 | RNA1{[moe](T)[sp].[moe](A)p.[moe](G)p.[moe](T)p.[moe](G)p.d(T)[sp].d(T)[sp].d(T)[sp].d(G)[sp].d(G)[sp].d(G)[sp].d(A)[sp].d(T)[sp].d(G)[sp].d([m5C])[sp].[moe](T)p.[moe](T)p.[moe]([m5C])[sp].[moe](A)}$$$$ (last 3' nucleoside missing) | 6.25
11 | RNA1{[moe](T)[sp].[moe](A)p.[moe](G)p.[moe]([m5C])p.[moe](A)p.d(T)[sp].d([m5C])[sp].d(A)[sp].d(T)[sp].d(T)[sp].d(G)[sp].d(G)[sp].d([m5C])[sp].d(G)[sp].d([m5C])[sp].[moe](A)p.[moe](T)p.[moe](G)[sp].[moe](G)}$$$$ (last 3' nucleoside missing) | 6.25
12 | RNA1{[moe](T)[sp].[moe](A)p.[moe](G)p.[moe]([m5C])p.[moe](A)p.d([m5C])[sp].d(T)[sp].d(T)[sp].d(G)[sp].d(G)[sp].d(T)[sp].d(T)[sp].d([m5C])[sp].d(A)[sp].d(A)[sp].[moe](T)p.[moe](T)p.[moe](T)[sp].[moe](T)}$$$$ (last 3' nucleoside missing) | 6
13 | RNA1{[moe](T)[sp].[moe](A)p.[moe](G)p.[moe]([m5C])p.[moe](T)p.d([m5C])[sp].d(A)[sp].d(T)[sp].d([m5C])[sp].d(A)[sp].d(A)[sp].d(G)[sp].d(G)[sp].d(T)[sp].d(A)[sp].[moe]([m5C])p.[moe]([m5C])p.[moe](A)[sp].[moe](G)}$$$$ (last 3' nucleoside missing) | 3
14 | RNA1{[moe](T)[sp].[moe](A)p.[moe](T)p.[moe](G)p.[moe](A)p.d(G)[sp].d(G)[sp].d(G)[sp].d(A)[sp].d([m5C])[sp].d(T)[sp].d(A)[sp].d(G)[sp].d(A)[sp].d(G)[sp].[moe]([m5C])p.[moe](A)p.[moe](T)[sp].[moe]([m5C])}$$$$ (last 3' nucleoside missing) | 6.25
15 | RNA1{[moe](T)[sp].[moe](A)p.[moe](T)p.[moe](G)p.[moe](T)[sp].d(T)[sp].d(T)[sp].d(G)[sp].d(T)[sp].d([m5C])[sp].d(T)[sp].d(G)[sp].d(T)[sp].[moe]([m5C])p.[moe](T)p.[moe](T)[sp].[moe](A)}$$$$ (last 3' nucleoside missing) | 6
16 | RNA1{[moe](T)[sp].[moe](A)p.[moe](T)p.[moe]([m5C])p.[moe](A)[sp].d(T)[sp].d([m5C])[sp].d(A)[sp].d(T)[sp].d(T)[sp].d(T)[sp].d(T)[sp].d([m5C])[sp].[moe]([m5C])p.[moe](A)p.[moe](G)[sp].[moe](G)}$$$$ (last 3' nucleoside missing) | 1.5
17 | RNA1{[moe](T)[sp].[moe](A)p.[moe](T)p.[moe]([m5C])p.[moe](A)p.d(T)[sp].d([m5C])[sp].d(A)[sp].d(T)[sp].d(T)[sp].d(T)[sp].d(T)[sp].d([m5C])[sp].d([m5C])[sp].d(A)[sp].[moe](G)p.[moe](G)p.[moe](G)[sp].[moe]([m5C])}$$$$ (last 3' nucleoside missing) | 4.75
18 | RNA1{[moe](T)[sp].[moe](A)p.[moe]([m5C])p.[moe](A)p.[moe](G)p.d(G)[sp].d(T)[sp].d(G)[sp].d(A)[sp].d(G)[sp].d(A)[sp].d(T)[sp].d(A)[sp].d(T)[sp].d(A)[sp].[moe](T)p.[moe](A)p.[moe](G)[sp].[moe](G)}$$$$ (last 3' nucleoside missing) | 4
19 | RNA1{[moe](T)[sp].[moe](A)p.[moe]([m5C])p.[moe](A)p.[moe]([m5C])p.d(A)[sp].d(G)[sp].d(T)[sp].d(T)[sp].d(T)[sp].d([m5C])[sp].d(A)[sp].d([m5C])[sp].d(T)[sp].d(A)[sp].[moe](G)p.[moe](G)p.[moe](T)[sp].[moe](T)}$$$$ (last 3' nucleoside missing) | 1
20 | RNA1{[moe](T)[sp].[moe](A)p.[moe]([m5C])p.[moe](G)p.[moe]([m5C])p.d(G)[sp].d(G)[sp].d(T)[sp].d(G)[sp].d(A)[sp].d(A)[sp].d(T)[sp].d(T)[sp].d([m5C])[sp].d(T)[sp].[moe](G)p.[moe](T)p.[moe]([m5C])[sp].[moe](T)}$$$$ (last 3' nucleoside missing) | 0
21 | RNA1{[moe](T)[sp].[moe](A)p.[moe]([m5C])p.[moe](T)p.[moe](G)[sp].d(T)[sp].d(T)[sp].d(T)[sp].d([m5C])[sp].d(G)[sp].d(A)[sp].d([m5C])[sp].d([m5C])[sp].[moe](T)p.[moe]([m5C])p.[moe](T)[sp].[moe](G)}$$$$ (last 3' nucleoside missing) | 4.75
22 | RNA1{[moe](T)[sp].[moe](A)p.[moe]([m5C])p.[moe](T)p.[moe](G)p.d(T)[sp].d(T)[sp].d(T)[sp].d([m5C])[sp].d(G)[sp].d(A)[sp].d([m5C])[sp].d([m5C])[sp].d(T)[sp].d([m5C])[sp].[moe](T)p.[moe](G)p.[moe](A)[sp].[moe](A)}$$$$ (last 3' nucleoside missing) | 3
23 | RNA1{[moe](T)[sp].[moe](A)p.[moe]([m5C])p.[moe](T)p.[moe](T)[sp].d(T)[sp].d(T)[sp].d([m5C])[sp].d(T)[sp].d([m5C])[sp].d(A)[sp].d(T)[sp].d(G)[sp].[moe](T)p.[moe](G)p.[moe]([m5C])[sp].[moe](G)}$$$$ (last 3' nucleoside missing) | 4.75
24 | RNA1{[moe](T)[sp].[moe](A)p.[moe]([m5C])p.[moe](T)p.[moe](T)[sp].d([m5C])[sp].d(A)[sp].d([m5C])[sp].d(A)[sp].d(T)[sp].d(T)[sp].d(T)[sp].d(G)[sp].[moe](G)p.[moe](A)p.[moe](G)[sp].[moe]([m5C])}$$$$ (last 3' nucleoside missing) | 3.25
25 | RNA1{[moe](T)[sp].[moe](A)p.[moe]([m5C])p.[moe](T)p.[moe](T)p.[moe](T)p.d(T)[sp].d([m5C])[sp].d(T)[sp].d([m5C])[sp].d(A)[sp].d(T)[sp].d(G)[sp].d(T)[sp].d(G)[sp].d([m5C])[sp].[moe](G)p.[moe](G)[sp].[moe]([m5C])}$$$$ (last 3' nucleoside missing) | 5.5
26 | RNA1{[moe](T)[sp].[moe](A)p.[moe]([m5C])p.[moe](T)p.[moe](T)p.d(T)[sp].d(T)[sp].d([m5C])[sp].d(T)[sp].d([m5C])[sp].d(A)[sp].d(T)[sp].d(G)[sp].d(T)[sp].d(G)[sp].[moe]([m5C])p.[moe](G)p.[moe](G)[sp].[moe]([m5C])}$$$$ (last 3' nucleoside missing) | 3.75
27 | RNA1{[moe](T)[sp].[moe](A)p.[moe]([m5C])p.[moe](T)p.[moe](T)p.d([m5C])[sp].d(A)[sp].d([m5C])[sp].d(A)[sp].d(T)[sp].d(T)[sp].d(T)[sp].d(G)[sp].d(G)[sp].d(A)[sp].[moe](G)p.[moe]([m5C])p.[moe]([m5C])[sp].[moe]([m5C])}$$$$ (last 3' nucleoside missing) | 5.25

— the OligoGym collection
